We go through twelve molecules from patent US7465748B2, “Amide derivative” (Astellas Pharma Inc., priority 2003, dated 2008).

Molecules are shown by their SMILES. Read-outs that look alike come from different tables or passages of the source.

The test system of one experiment is HSV-1 strain WT-51. Put plainly: Cutaneous HSV-1 infection mouse model. Type of experiment: in vivo, HR-1 hairless mouse. As to conditions: 10 mg/kg twice a day for 5 days from 3 hours after infection, lesion score for 17 days. How it is done:
Using a cutaneous HSV-1 infection mouse model prepared in accordance with the method of H. Machida et al. (Antiviral Res., 1992, 17, 133-143), in vivo activity of the compounds of the invention was tested. The skin of each HR-1 hairless mouse [female, 7 weeks of age] was scratched lengthwise and breadthwise several times using a needle and a virus suspension (HSV-1 strain WT-51, 1.5×10^4 PFU/15 μl) was droped to the scarified region for infection, while anesthetized with diethyl ether
Tested compounds were administered orally as a methyl cellulose suspension, except for compounds marked with asterisk which were dissolved in 20% Cremophor EL (Nakarai Tesuku)/20% polyethylene glycol (PEG) 400/60% H2O solution, starting at 3 hours after the infection, and then at a dose of 10 mg/kg twice a day for 5 days. The symptom of the skin lesion caused by HSV-1 infection were classified in the following scores for 17 days:
Score 0: no signs of infection.
Score 1: localized, barely perceptible small vesicles.
Score 2: slight vesicle spread.
Score 3: large patches of vesicles formed.
Score 4: zosteriform vesicles.
Score 5: large patches of ulcers formed.
Score 6: zosteriform with severe large ulcers.
Score 7: hind limb paralysis or death.
The AUC value was calculated from each group's mean disease score, and the disease inhibitory rate of the group administered with each test compound to the placebo group was calculated using the AUC.

The next experiment relates to VZV (strain CaQu). Put plainly: Anti-VZV activity assay (plaque reduction in HEF cells). Type of experiment: cell-based, varicella zoster virus (VZV). The note with it: human embryonic fibroblast (HEF) cells infected with VZV strain CaQu, plaque count after 3 to 4 days. Here is the method:
This assay was carried out in accordance with the method described by Shigeta S. (The Journal of Infectious Diseases, 147, 3, 576-584 (1983). Specifically, human embryonic fibroblast (HEF) cells were inoculated in a 96-well microtiter plate, using a growth culture medium [Eagle MEM (Nissui) supplemented with 10% (v/v) fetal bovine serum (FBS; Sigma)], for culturing in 5% CO2 at 37° C. for 4 days until a monolayer was formed. After washing the cells with a maintenance medium, the cells were inoculated with 100 μl/well of VZV (strain CaQu) which had been diluted to 20 to 30 pfu/100 μl with the maintenance medium (Eagle MEM supplemented with 2% FBS). The plate was centrifuged at 2,000 rpm for 20 minutes at room temperature and then incubated at 37° C. for 3 hours in an atmosphere of 5% CO2 to infect with VZV. After washing three times with the maintenance medium, 100 μl of each test drug diluted to an appropriate concentration with the maintenance medium was added to each well. After culturing the cells at 37° C. for 3 to 4 days in an atmosphere of 5% CO2, the cells were fixed with 100 μl/well of 10% formalin/PBS for 2 to 3 hours. […] After discarding the fixing solution and culture supernatant and subsequently washing the plate with water, a staining solution (0.025% Crystal Violet) was added at 50 μl/well for staining for 2 to 3 minutes, and then, the plate was washed with water and dried at 37° C. Cellular death is induced in the HEF cells infected with VZV, so that plaques of the dead cells are formed in the monolayer of the HEF cells.

Another experiment has as its system HSV-1 (strain KOS). Description: Anti-HSV-1 activity assay (MTT, MRC-5 cells). The format is cell-based. As to conditions: HSV-1 strain KOS 50 TCID50/100 μl, 5 days culture, read-out: EC50 value (suppression of cellular death of MRC-5 cells via HSV-1 replication). Here is the method: 10,000 MRC-5 cells were inoculated and cultured in a 96-well microtiter plate, using the growth culture medium [Eagle MEM (Nissui) supplemented with 10% FBS] in 5% CO2 at 37° C. for 4 to 5 days until a monolayer was formed. After the cells were washed with the maintenance culture medium [Eagle MEM supplemented with 2% (v/v) FBS], 100 μl of the maintenance culture medium dissolving therein an appropriate concentration of a test reagent was added to each well. Immediately after the test drug was added, an HSV-1 (strain KOS) solution was inoculated at 50 TCID50 (50% tissue culture infectious dose)/100 μl. After the cells were cultured in 5% CO2 at 37° C. for 5 days, 20 μl of MTT solution [3-(4,5-dimethyl-2-thiazolyl)-2,5-diphenyl-2H-tetrazolium bromide; Sigma] (diluted with PBS to 7.5 mg/ml) was added to each well, for another 24-hour incubation. After the culture medium was discarded, 100 μl of a solvent (prepared by adding 10% Triton X 100 (v/v) and 0.4% hydrochloric acid to isopropanol) was added to each well, to solubilize the generated formazan. The absorbance at 540 nm or 690 nm was measured with a microplate reader. Based on the suppression ratio (%) of the cellular death of the MRC-5 cell via HSV-1 replication, the EC50 value of the test drug was calculated.

[1] abbreviates: oral, methyl cellulose suspension.
Setting [2] is: asterisk: oral, dissolved in 20% Cremophor EL/20% PEG 400/60% H2O solution.
[3] abbreviates: Human alphaherpesvirus 3, read-out: EC50 value (concentration to inhibit 50% of the plaques).
Setting [4] is: Human alphaherpesvirus 1, MRC5, 120 h.

As to `Nc1nc(-c2ccc(NC(=O)CN(C(=O)c3ccc(F)cc3)c3ccc4ncsc4c3)cc2)cs1` [Comparative Compound A, reference compound], in the experiment on HSV-1 strain WT-51 (setting [1]), the “Inhibitory activity (%) (disease inhibitory rate vs placebo from AUC of mean disease score)” value (“Inhibitory activity (%)” below) is 38%. Consider `COc1ccc(N(CC(=O)Nc2ccc(-c3csc(N)n3)cc2)C(=O)C2CCS(=O)(=O)CC2)cc1` [Comparative Compound B, reference compound], for which the “Inhibitory activity (%)” value with HSV-1 strain WT-51 (setting [1]) stood at 2%. On the same count and under the same terms, to `COc1ccc(N(CC(=O)Nc2ccc(-c3csc(N)n3)cc2)C(=O)C2CCC(O)CC2)cc1` (stereo not drawn) [Comparative Compound C, reference compound] belongs 44%; to `Nc1nc(-c2ccc(NC(=O)CN(C(=O)C3CCS(=O)(=O)CC3)c3ccc4c(c3)CCC4)cc2)cs1` [Comparative Compound D, reference compound], 43%.

Regarding `Cc1cccc(C)c1N(CC(=O)Nc1ccc(-c2cocn2)cc1)C(=O)C1CCS(=O)(=O)CC1` [Example 1, N-(2,6-dimethylphenyl)-N-(2-([4-(1,3-oxazol-4-yl)phenyl]amino)-2-oxoethyl)tetrahydro-2H-thiopyran-4-carboxamide 1,1-dioxide], the “Inhibitory activity (%)” value with HSV-1 strain WT-51 (setting [2]) is “*93%”. Consider `Cc1ccc(N(CC(=O)Nc2ccc(-c3cocn3)cc2)C(=O)C2CCS(=O)(=O)CC2)c(C)c1` [Example 6, N-(2,4-dimethylphenyl)-N-(2-{[4-(1,3-oxazol-4-yl)phenyl]amino}-2-oxoethyl)tetrahydro-2H-thiopyran-4-carboxamide 1,1-dioxide], for which the “Inhibitory activity (%)” value with HSV-1 strain WT-51 (setting [1]) turned out to be 92%. Take `O=C(CN(C(=O)C1CCS(=O)(=O)CC1)c1ccc2c(c1)CCC2)Nc1ccc(-c2cocn2)cc1` [Example 11, N-(2,3-dihydro-1H-inden-5-yl)-N-(2-{[4-(1,3-oxazol-4-yl)phenyl]amino)-2-oxoethyl)tetrahydro-2H-thiopyran-4-carboxamide 1,1-dioxide]: the EC50 came to 0.06 µM in the experiment on VZV (strain CaQu) (setting [3]) and 0.04 µM in the experiment on HSV-1 (strain KOS) (setting [4]).

On to `Cc1ccc(N(CC(=O)Nc2ccc(-c3cocn3)cc2)C(=O)C2CCS(=O)(=O)CC2)cc1F` [Example 14, N-(3-fluoro-4-methylphenyl)-N-(2-{[4-(1,3-oxazol-4-yl)phenyl]amino)-2-oxoethyl)tetrahydro-2H-thiopyran-4-carboxamide 1,1-dioxide], for which the “Inhibitory activity (%)” value in the experiment with HSV-1 strain WT-51 (setting [1]) amounted to 98%. For `Cc1cccc(C)c1N(CC(=O)Nc1ccc(-c2ncon2)cc1)C(=O)C1CCS(=O)(=O)CC1` [Example 27, N-(2,6-dimethylphenyl)-N-(2-([4-<(1,2,4-oxadiazol-3-yl)phenyl]amino}-2-oxoethyl)tetrahydro-2H-thiopyran-4-carboxamide 1,1-dioxide], the EC50 came out at 0.1 µM in the experiment with VZV (strain CaQu) (read-out: EC50 value (concentration to inhibit 50% of the plaques)) and 0.06 µM in the experiment with HSV-1 (strain KOS). For the molecule `Cc1cc(N(CC(=O)Nc2ccc(-c3ncon3)cc2)C(=O)C2CCS(=O)(=O)CC2)ccc1Cl` [Example 37, N-(4-chloro-3-methylphenyl)-N-(2-{[4-(1,2,4-oxadiazol-3-yl)phenyl]amino)-2-oxoethyl)tetrahydro-2H-thiopyran-4-carboxamide 1,1-dioxide], the “Inhibitory activity (%)” value in the experiment on HSV-1 strain WT-51 (setting [1]) is 100%.

On to `Cc1cccc(C)c1N(CC(=O)Nc1ccc(-n2nccn2)cc1)C(=O)C1CCS(=O)(=O)CC1` [Example 98], for which the values for the EC50 with VZV (strain CaQu) (setting [3]) and in the experiment with HSV-1 (strain KOS) (setting [4]) were 0.14 µM and 0.042 µM, respectively. Besides, in the experiment with HSV-1 strain WT-51 (setting [2]), the “Inhibitory activity (%)” value is given as “*95%”. In the same order, the values of `Cc1cccc(C)c1N(CC(=O)Nc1ccc(-c2ccccn2)cc1)C(=O)C1CCS(=O)(=O)CC1` [Example 125] are 0.19 µM, 0.028 µM and “*80%”.
